Values quoted from earlier work, collected in patent US20240325353A1, “COMPOUND FOR TREATMENT OF COGNITIVE DISORDERS” (Syndesi Therapeutics SA, priority 2021, published 2024).
Like-named read-outs stand apart in the source and are kept apart here.

Key:
[1] = in vivo; cited from earlier work
[2] = target: T1, synaptic vesicle glycoprotein 2A (Homo sapiens, UniProt Q7L0J3); settings: oral 100 mg for 4 days; cited from earlier work
T1 construct: from tissue; host or cells: brain of living healthy male subjects (PET)
T1 sequence (Q7L0J3 whole entry): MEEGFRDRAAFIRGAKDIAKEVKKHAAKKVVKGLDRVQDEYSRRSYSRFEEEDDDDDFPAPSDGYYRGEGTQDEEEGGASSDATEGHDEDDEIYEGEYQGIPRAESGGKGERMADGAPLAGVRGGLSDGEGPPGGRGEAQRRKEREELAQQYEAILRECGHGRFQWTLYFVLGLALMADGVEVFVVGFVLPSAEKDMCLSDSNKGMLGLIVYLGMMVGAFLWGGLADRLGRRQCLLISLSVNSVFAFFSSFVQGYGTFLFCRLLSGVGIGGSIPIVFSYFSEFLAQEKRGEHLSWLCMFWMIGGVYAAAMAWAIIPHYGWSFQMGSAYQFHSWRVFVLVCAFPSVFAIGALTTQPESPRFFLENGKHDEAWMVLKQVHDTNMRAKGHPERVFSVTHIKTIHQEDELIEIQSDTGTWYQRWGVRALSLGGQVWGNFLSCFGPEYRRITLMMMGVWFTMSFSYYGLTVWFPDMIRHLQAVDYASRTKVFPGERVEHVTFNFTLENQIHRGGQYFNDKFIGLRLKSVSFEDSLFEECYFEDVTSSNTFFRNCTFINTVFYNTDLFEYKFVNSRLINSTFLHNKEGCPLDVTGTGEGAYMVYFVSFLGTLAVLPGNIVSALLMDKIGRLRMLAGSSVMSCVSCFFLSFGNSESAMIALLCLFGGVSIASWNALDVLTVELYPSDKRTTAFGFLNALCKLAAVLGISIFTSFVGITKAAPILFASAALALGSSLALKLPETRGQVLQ

SV2A [3] = target: T2, SV2A (Homo sapiens, UniProt Q7L0J3); settings: cited from earlier work
Target sequence in this assay (Q7L0J3 whole entry, species assumed): as the sequence (Q7L0J3 whole entry) above

SV2A [4] = target: T3, SV2A (Mus musculus, UniProt Q9JIS5); settings: audiogenic mice; cited from earlier work
T3 construct: host or cells: brain of audiogenic mice
T3 sequence (Q9JIS5 whole entry): as the sequence (Q7L0J3 whole entry) above, with S62A, T71A, E144D, A154T, G440S, S482A, I572V, M634L counted along it

[5] = animals and humans; cited from earlier work
SV2A [6] = target: T2, SV2A; design: host or cells: human brain (prediction for patients); settings: cited from earlier work
Target sequence in this assay (Q7L0J3 whole entry): as the sequence (Q7L0J3 whole entry) above

Structure (SMILES): CC[C@H](C(N)=O)N1CCCC1=O (single isomer, unassigned) [dextrorotatory enantiomer of levetiracetam]
- activity in epilepsy [1]: completely lacks activity

Structure (SMILES): CCC[C@@H]1CC(=O)N([C@@H](CC)C(N)=O)C1 [brivaracetam, (2S)-2-[(4R)-2-oxo-4-propyltetrahydro-1H-pyrrol-1-yl] butanamide]
- SV2A occupancy at steady state, peak [2]: 82-87%
- SV2A occupancy at steady state, trough [2]: 76-82%
- affinity of binding to SV2A relative to levetiracetam (SV2A [3]): higher affinity than levetiracetam

Structure (SMILES): CC[C@@H](C(N)=O)N1CCCC1=O [levetiracetam, (S)-(−)-alpha-ethyl-2-oxo-1-pyrrolidine acetamide]
- SV2A occupancy needed to protect against clonic seizure (SV2A [4]): ~90%
- impact on the cognitive function [5]: no impact on the cognitive function
- predicted SV2A occupancy at Cmin and Cmax (SV2A [6]; patients receiving a 1 g daily dose): 80 to 93%
- predicted SV2A occupancy at Cmin and Cmax (SV2A [6]; patients receiving a 3 g daily dose): 92 to 98%
